The target of data set [1] is plasma kallikrein (NP_000883) (Homo sapiens, UniProt P03952). To be noted: cited from earlier work.
A further data set concerns the target pKal (Homo sapiens, UniProt P03952). Particulars: read-out: Ki,app; active site inhibitor of pKal; cited from earlier work.
The conditions of data set [2]: Lot 100808, phosphate buffered saline, pH 7.0, 5.6 mg/mL.

Positions of bridges follow the written chain, without caps; N, C: chain ends. No end group written: not given here.

Chain of plasma kallikrein (NP_000883) (P03952 20-638): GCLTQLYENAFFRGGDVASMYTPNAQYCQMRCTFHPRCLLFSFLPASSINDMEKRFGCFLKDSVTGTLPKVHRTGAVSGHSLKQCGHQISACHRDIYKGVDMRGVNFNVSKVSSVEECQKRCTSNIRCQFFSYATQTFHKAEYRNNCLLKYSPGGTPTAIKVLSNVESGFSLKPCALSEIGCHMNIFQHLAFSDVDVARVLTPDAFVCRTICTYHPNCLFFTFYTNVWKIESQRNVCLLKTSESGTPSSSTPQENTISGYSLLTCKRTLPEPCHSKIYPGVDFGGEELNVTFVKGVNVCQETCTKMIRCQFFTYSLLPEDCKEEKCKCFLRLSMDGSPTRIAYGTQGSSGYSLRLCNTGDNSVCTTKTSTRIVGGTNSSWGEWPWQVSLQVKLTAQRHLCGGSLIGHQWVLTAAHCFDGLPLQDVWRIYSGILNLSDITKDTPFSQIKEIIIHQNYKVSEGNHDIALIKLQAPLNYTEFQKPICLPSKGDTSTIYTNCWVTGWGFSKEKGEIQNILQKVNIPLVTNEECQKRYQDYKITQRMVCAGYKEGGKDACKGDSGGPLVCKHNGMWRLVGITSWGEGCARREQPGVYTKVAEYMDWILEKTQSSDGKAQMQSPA
Chain of pKal (P03952 20-638): as above

For the sequence “EAMHSFCAFKADDGPCRAAHPRWFFNIFTRQCEEFIYGGCEGNQNRFESLEECKKMCTRD (disulfide 7-57, 16-40, 32-53) [DX-88]”, the Ki in data set [1] is below 1 nM.

Turning to “EAMHSFCAFKADDGPCRAAHPRWFFNIFTRQCEEFSYGGCGGNQNRFESLEECKKMCTRD (disulfide 7-57, 16-40, 32-53) [EPI-KAL2]”, at pKal, the Ki was 0.1 nM. The Stability entry in data set [2] is “Stable for 24 hours at 2-4 °C”.
